Key:
[1] = biological target: T1, human DPP1 enzyme (Homo sapiens (Human), UniProt P53634); assay: Human DPP1 enzyme single-point percent inhibition testing (HL-60 lysate, H-Gly-Arg-AMC substrate); format: biochemical; conditions: read-out: human DPP1 enzyme % inhibition @ 10 nM, 10 nM compound, 400 μM H-Gly-Arg-AMC, 10 min pre-incubation at 37° C.
Protocol: A crude lysate of HL-60 cells (ATCC; Manassas, VA) was used as a source of human DPP1 enzyme in the assay. Lysate was prepared in 1% Triton X-100 in PBS at a concentration of 20,000 live cells per […] of lysis buffer and was centrifuged at 16,000 rcf for 10 minutes at 4° C., after which supernatant was collected and flash-frozen in liquid nitrogen. Test articles were applied to human DPP1 enzyme in Assay Buffer (25 mM MES pH 6.0, 50 mM NaCl, 5 mM DTT) in a total reaction volume of 125 μL. 25 μL of compound diluted to 50 nM in Assay Buffer plus 5% DMSO was first added to 50 μL of HL-60 lysate diluted to contain a DPP1 enzyme concentration of roughly 1 ng/μL and allowed to pre-incubate for 10 minutes at 37° C. after which 50 μL of 1000 μM H-Gly-Arg-AMC substrate (Bachem; St. Torrance, CA) was added, giving final compound concentration of 10 nM, a final substrate concentration of 400 μM and a final DMSO concentration of 1%. Substrate cleavage was measured for 90 minutes at 37° C., with fluorescence at Excitation/Emission 350/450 nm measured every 5 minutes. DPP1 concentration was interpolated based on its activity relative to a standard curve of activated human recombinant DPP1 enzyme. Percent inhibition at 10 nM was calculated for each test article based on remaining DPP1 activity compared to enzyme activity in wells that received only vehicle control.

[2] = biological target: DPP1 in HL-60 cells (Homo sapiens (Human), UniProt P53634); assay: DPP1 cell single-point percent inhibition testing (HL-60 cells, H-Gly-Phe-AFC substrate); format: cell-based; conditions: read-out: DPP1 cell % inhibition @ 5 nM, 5 nM compound, 100 μM H-Gly-Phe-AFC, 60 min pre-incubation at 37° C.
Protocol: HL-60 cells (ATCC; Manassas, VA) were maintained in RPMI-1640 supplemented with 20% heat-inactivated FBS and 1× Antibiotic Antimycotic (Cytiva; Marlborough, MA). Media was changed every three to four days and cells were not allowed to exceed 1×10^6 cells per mL. Prior to assay, cells were collected by centrifugation at 500 rcf for 3 minutes, resuspended in RPMI (with no additional supplements) and counted. Cells were diluted in RPMI to a concentration of 5×10^5 live cells per mL and transferred to black 96-well plates for assay, 60 μL per well. Test articles were diluted to 25 nM in RPMI plus 0.5% DMSO, and 20 μL was added to each assay well. Compound was allowed to pre-incubate with cells with gentle shaking at 100 rpm for 60 minutes at 37° C. in a cell culture incubator maintained at 5% CO2, after which 20 μL of 500 μM H-Gly-Phe-AFC cell-permeable substrate (MP Biomedicals; Solon, OH) in RPMI was added to each well, giving final compound concentration of 5 nM, a final substrate concentration of 100 μM and a final DMSO concentration of 0.1%. Plates were returned to the incubator with shaking at 100 rpm for 30 minutes, after which fluorescence was measured at Excitation/Emission 400/505 nm. Percent Inhibition was calculated from RFU values by first subtracting background values (wells in which RPMI was substituted for cells) from each well, and then subtracting background-subtracted RFU derived from wells that received a final concentration of 10 μM brensocatib. This value represents the non-specific substrate cleavage from the HL-60 cells, and the remaining RFU should theoretically be solely the contribution of DPP1 enzyme activity. The final percent inhibition value was calculated for each test article based on remaining RFU compared to RFU from wells that received only vehicle control.

[3] = biological target: T1, human DPP1 enzyme; assay: Human DPP1 enzyme IC50 assay; format: biochemical; conditions: recombinant human DPP1, H-Gly-Arg-AMC substrate 400 μM
Protocol: Test articles were applied to activated human DPP1 enzyme in Assay Buffer (25 mM MES pH 6.0, 50 mM NaCl, 5 mM DTT) in a total reaction volume of 125 μL. 25 μL of compound in Assay Buffer plus 5% DMSO was first added to 50 μL of activated human DPP1 enzyme at a concentration of 1 ng/μL and allowed to pre-incubate for 10 minutes at 37° C. after which 50 μL of 1000 μM H-Gly-Arg-AMC substrate (Bachem; St. Torrance, CA) was added, giving final substrate concentration of 400 μM and a final DMSO concentration of 1%. Substrate cleavage was measured for 90 minutes at 37° C., with fluorescence at Excitation/Emission 350/450 nm measured every 5 minutes. DPP1 concentration was interpolated based on its activity relative to a standard curve of activated human recombinant DPP1 enzyme. IC50 values for each compound were calculated via the XLFit (IDBS Version 5.3.1.3) Add-On to Microsoft Excel using the four parameter fit equation y={A+[(B-A)]/[1+((C/x)^D)]}, which appears as equation number 205 (4 Parameter Logistic Model or Sigmoidal Dose-Response Model) in XLFit. Default constraints were used for each Parameter.

T1 sequence (P53634 25-134): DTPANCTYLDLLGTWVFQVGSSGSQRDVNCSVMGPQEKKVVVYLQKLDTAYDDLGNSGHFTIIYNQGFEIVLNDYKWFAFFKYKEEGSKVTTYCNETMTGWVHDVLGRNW
T1 sequence (P53634 231-394): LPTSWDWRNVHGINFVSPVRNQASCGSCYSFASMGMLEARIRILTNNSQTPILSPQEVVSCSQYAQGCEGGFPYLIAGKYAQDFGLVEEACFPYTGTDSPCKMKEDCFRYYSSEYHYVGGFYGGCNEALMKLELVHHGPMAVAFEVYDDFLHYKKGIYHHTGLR
T1 sequence (P53634 395-463): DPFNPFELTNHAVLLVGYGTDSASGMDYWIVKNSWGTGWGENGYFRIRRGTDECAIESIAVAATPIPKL
Chain of DPP1 in HL-60 cells (P53634 25-134): as the sequence (P53634 25-134) above
Chain of DPP1 in HL-60 cells (P53634 231-394): as the sequence (P53634 231-394) above
Chain of DPP1 in HL-60 cells (P53634 395-463): as the sequence (P53634 395-463) above

| SMILES | inhibition at 0.01 µM [1] [%] | inhibition at 0.005 µM [2] [%] | IC50 [3] [nM] |
| --- | --- | --- | --- |
| CO[C@@H](CN(C)C)C(=O)NC(C#N)Cc1cc2c(cc1F)-c1cc(C#N)ccc1CO2 (stereo partly shown) [Compound 298] | ≤ 40 | ≤ 76.5 |  |
| CO[C@@H](CN(C)C)C(=O)N[C@H](C#N)Cc1ccc(-c2ccc(S(=O)(=O)N3CCC3)cc2)cc1F [Compound 335] | ≤ 40 | ≤ 76.5 |  |
| CO[C@@H](CN(C)C)C(=O)NC(C#N)Cc1cc2c(cc1F)-c1cc(C3COC3)c(F)cc1CO2 (stereo partly shown) [Compound 295] | 40 to 66.7 | ≤ 76.5 |  |
| CN(C)C[C@](C)(O)C(=O)N[C@H](C#N)Cc1ccc(-c2ccc3cnn(C)c3c2)cc1F [Compound 416] | 40 to 66.7 | 76.5 to 93.9 |  |
| CO[C@@H](CN(C)C)C(=O)N[C@H](C#N)Cc1ccc(-c2cc3c(C)nc(C)cn3c2)cc1 [Compound 303] | ≤ 40 | ≤ 76.5 |  |
| CO[C@@H](CN(C)C)C(=O)N[C@H](C#N)Cc1ccc(-c2ccc3oc(=O)n(CCN(C)C)c3c2)cc1F [Compound 315] | ≥ 66.7 | ≤ 76.5 |  |
| Cc1cn2cc(-c3ccc(C[C@@H](C#N)NC(=O)[C@@H](O)CN(C)C)cc3)cc2c(C)n1 [Compound 345] | ≤ 40 | ≤ 76.5 |  |
| CN(C)C[C@](C)(O)C(=O)N[C@H](C#N)Cc1ccc(-c2ccc3c(c2)C2(CC3)CCN(C)CC2)cc1F [Compound 397] | ≥ 66.7 | ≤ 76.5 |  |
| CO[C@@H](CN(C)C)C(=O)N[C@H](C#N)Cc1ccc(-c2ccc3c(c2)C2(CC3)CCN(C)CC2)cc1F [Compound 313] | ≥ 66.7 | ≤ 76.5 |  |
| CO[C@@H](CN(C)C)C(=O)N[C@H](C#N)Cc1ccc(-c2ccc3oc(=O)n(C)c3c2)cc1 [Compound 311] | ≤ 40 | 76.5 to 93.9 |  |
| CO[C@@H](CN(C)C)C(=O)N[C@H](C#N)Cc1ccc(-c2ccc(CN3CCN(C)CC3)cc2)cc1 [Compound 310] | ≤ 40 | 76.5 to 93.9 |  |
| CN(C)C[C@](C)(O)C(=O)N[C@H](C#N)Cc1ccc(-c2ccc(CN3CCN(C)CC3)cc2)cc1F [Compound 407] | 40 to 66.7 | ≥ 93.9 |  |
| CN(C)C[C@H](O)C(=O)N[C@H](C#N)Cc1ccc(-c2ccc3c(c2)C2(CCCN(C)C2)C(=O)N3C)cc1F (stereo partly shown) [Compound 356] | 40 to 66.7 | 76.5 to 93.9 |  |
| CN(C)C[C@](C)(O)C(=O)N[C@H](C#N)Cc1ccc(-c2ccc3c(n2)CCCN3)cc1F [Compound 409] | ≥ 66.7 | 76.5 to 93.9 |  |
| CN(C)C[C@H](O)C(=O)N[C@H](C#N)Cc1ccc(-c2ccc3cnn(C4CCN(C)CC4)c3c2)cc1F [Compound 362] | ≥ 66.7 | ≤ 76.5 |  |
| CN(C)C[C@](C)(O)C(=O)N[C@H](C#N)Cc1ccc(-c2ccc(S(=O)(=O)N3CCC3)cc2)cc1F [Compound 419] | ≤ 40 | ≤ 76.5 |  |
| CO[C@@H](CN(C)C)C(=O)N[C@H](C#N)Cc1ccc(-c2ccc3c(n2)CCCN3)cc1F [Compound 325] | ≤ 40 | ≤ 76.5 |  |

| SMILES | inhibition at 0.01 µM [1] [%] | inhibition at 0.005 µM [2] [%] | IC50 [3] [nM] |
| --- | --- | --- | --- |
| CN(C)C[C@H](O)C(=O)N[C@H](C#N)Cc1ccc(-c2ccc3oc(=O)n(CCN4CCOCC4)c3c2)cc1 [Compound 351] | ≤ 40 | ≤ 76.5 |  |
| CO[C@@H](CN(C)C)C(=O)N[C@H](C#N)Cc1ccc(-c2cnc3c(n2)CCCC3)cc1F [Compound 334] | ≤ 40 | ≤ 76.5 |  |
| CN(C)C[C@](C)(O)C(=O)N[C@H](C#N)Cc1ccc(-c2ccc3oc(=O)n(C)c3c2)cc1 [Compound 395] | ≥ 66.7 | 76.5 to 93.9 |  |
| CN(C)C[C@](C)(O)C(=O)N[C@H](C#N)Cc1ccc(-c2cnc3c(n2)CCCC3)cc1F [Compound 418] | 40 to 66.7 | ≤ 76.5 |  |
| CN(C)C[C@](C)(O)C(=O)N[C@H](C#N)Cc1ccc(-c2ccc3c(c2)C2(CCCN(C)C2)C(=O)N3C)cc1F (stereo partly shown) [Compound 398] | ≥ 66.7 | ≥ 93.9 |  |
| CN(C)C[C@H](O)C(=O)N[C@H](C#N)Cc1ccc(-c2ccc(CN3CCN(C)CC3)cc2)cc1F [Compound 365] | ≤ 40 | ≤ 76.5 |  |
| COCCN(C)CCn1c(=O)oc2ccc(-c3ccc(C[C@@H](C#N)NC(=O)[C@H](CN(C)C)OC)c(F)c3)cc21 [Compound 326] | ≥ 66.7 | ≤ 76.5 |  |
| CO[C@@H](CN(C)C)C(=O)N[C@H](C#N)Cc1ccc(-c2ccc3nnn(C)c3c2)cc1 [Compound 329] | ≤ 40 | ≤ 76.5 |  |
| CN(C)C[C@H](O)C(=O)N[C@H](C#N)Cc1ccc(-c2ccc(CN3CCN(C)CC3)cc2)cc1 [Compound 352] | ≤ 40 | ≤ 76.5 |  |
| CN(C)C[C@](C)(O)C(=O)N[C@H](C#N)Cc1ccc(-c2ccc3oc(=O)n(CCN4CCOCC4)c3c2)cc1 [Compound 393] | 40 to 66.7 | ≤ 76.5 |  |
| CO[C@@H](CN(C)C)C(=O)N[C@H](C#N)Cc1ccc(-c2ccc3c(c2)C2(CCN(C)C2)OC3=O)cc1 (stereo partly shown) [Compound 306] | ≤ 40 | ≤ 76.5 |  |
| CN(C)C[C@H](O)C(=O)NC(C#N)Cc1cc2c(cc1F)-c1cc(C#N)ccc1CO2 (stereo partly shown) [Compound 340] | ≤ 40 |  |  |
| CCN(C)C[C@H](OC)C(=O)N[C@H](C#N)Cc1ccc(-c2ccc3oc(=O)n(C)c3c2)cc1 [Compound 130, (2S)—N-[(1S)-1-cyano-2-[4-(3-methyl-2-oxo-1,3-benzoxazol-5-yl)phenyl]ethyl]-3-[ethyl(methyl)amino]-2-methoxypropanamide] |  |  | ≥ 15 |
| Cn1c(=O)oc2ccc(-c3ccc(C[C@@H](C#N)NC(=O)C(N)Cc4cncc(O)c4)cc3)cc21 (stereo partly drawn) [Compound 217, 2-amino-N-[(1S)-1-cyano-2-[4-(3-methyl-2-oxo-1,3-benzoxazol-5-yl)phenyl]ethyl]-3-(5-hydroxypyridin-3-yl)propanamide] |  |  | ≥ 15 |
| CCN(CC)C[C@H](O)C(=O)N[C@H](C#N)Cc1ccc(-c2ccc3oc(=O)n(C)c3c2)cc1 [Compound 115, (2S)—N-[(1S)-1-cyano-2-[4-(3-methyl-2-oxo-1,3-benzoxazol-5-yl)phenyl]ethyl]-3-(diethylamino)-2-hydroxypropanamide] |  |  | ≥ 15 |
| Cn1c(=O)oc2ccc(-c3ccc(C[C@@H](C#N)NC(=O)CC(N)Cc4cocn4)cc3)cc21 (stereo partly drawn) [Compound 230, 3-amino-N-[(1S)-1-cyano-2-[4-(3-methyl-2-oxo-1,3-benzoxazol-5-yl)phenyl]ethyl]-4-(1,3-oxazol-4-yl)butanamide] |  |  | ≥ 15 |
